We go through two compounds from patent US20090010891A1, “Sepsis Treatment Agent” (Toa Pharmaceutical Co., Ltd., priority 2007, published 2009).

The test system of the test is sepsis patients. Briefly: treatment course of sepsis in blood culture positive patients. The test is classed as in vivo, human. As to conditions: observation for 1 year; for Cured / Deaths: number of cases, Bio3 1 g 3 times a day where given. The method, then:
The sepsis treatment agent was administered 3 times a day at 1 g each time using a live bacteria formulation of a mix of the three bacteria. The patients were hospitalized in a psychiatric hospital. The patients were blood culture positive which is a predictor for bacterial translocation. In 4 cases, imipenem/cilastatin (IPM/CS) was administered, and in 4 cases, latamoxef (LMOX) was given. During the observation period, CRP (C reactive protein) increased slightly, and E. coli and enterococcus and the like were detected by culturing blood. After observation for 1 year, two cases died from both groups, and two cases were cured.

As for `CO[C@@]1(NC(=O)C(C(=O)O)c2ccc(O)cc2)C(=O)N2C(C(=O)O)=C(CSc3nnnn3C)CO[C@@H]21` (some centres unmarked) [Latamoxef, latamoxef], the Cured is on record as 2, the Deaths came out at 2 and the “death rate (%)” value came to 50%. Also, for the setting “listed as latamoxef”, the Cured result is recorded as “two” and the Deaths result was “two”.
Turning to `C[C@@H](O)[C@H]1C(=O)N2C(C(=O)O)=C(SCCN=CN)C[C@H]12` [Imipenem, imipenem/cilastatin], the Cured is 2, the Deaths turned out to be 2 and the “death rate (%)” value stood at 50%.
